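GI50: concentration for 50% inhibition of growth. Definition used: TGI = concentration required for complete inhibition of growth.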
What was measured:
Assay in all cases: inhibition of tumour cell growth, NCI panel, 384-well format
[1] = tested on: 786-0 renal
[2] = tested on: A498 renal
[3] = tested on: A549 NSCLC
[4] = tested on: ACHN renal
[5] = tested on: BT-549 breast
[6] = tested on: CAKI-1 renal
[7] = tested on: CCRF-CEM leukemia
[8] = tested on: DU-145 prostate
[9] = tested on: EKVX NSCLC
[10] = tested on: HCT-116 colon
[11] = tested on: HCT-15 colon
[12] = tested on: HL-60(TB) leukemia
[13] = tested on: HOP-62 NSCLC
[14] = tested on: HOP-92 NSCLC
[15] = tested on: HS 578T breast
[16] = tested on: HT29 colon
[17] = tested on: IGROV1 ovarian
[18] = tested on: K-562 leukemia
[19] = tested on: KM12 colon
[20] = tested on: LOX IMVI melanoma
[21] = tested on: M14 melanoma
[22] = tested on: MALME-3M melanoma
[23] = tested on: MCF7 breast
[24] = tested on: MDA-MB-231 breast
[25] = tested on: MDA-MB-435 melanoma
[26] = tested on: MDA-MB-468 breast
[27] = tested on: MOLT-4 leukemia
[28] = tested on: NCI-H226 lung
[29] = tested on: NCI-H23 lung
[30] = tested on: NCI-H322M lung
[31] = tested on: NCI-H522 lung
[32] = tested on: NCI/ADR-RES ovarian
[33] = tested on: OVCAR-3 ovarian
[34] = tested on: OVCAR-4 ovarian
[35] = tested on: OVCAR-5 ovarian
[36] = tested on: OVCAR-8 ovarian
[37] = tested on: PC-3 prostate
[38] = tested on: RPMI-8226 leukemia
[39] = tested on: RXF 393 renal
[40] = tested on: SF-268 CNS
[41] = tested on: SF-295 CNS
[42] = tested on: SF-539 CNS
[43] = tested on: SK-MEL-2 melanoma
[44] = tested on: SK-MEL-28 melanoma
[45] = tested on: SK-OV-3 ovarian
[46] = tested on: SN12C renal
[47] = tested on: SNB-19 CNS
[48] = tested on: SNB-75 CNS
[49] = tested on: SW-620 colon
[50] = tested on: T-47D breast
[51] = tested on: TK-10 renal
[52] = tested on: U251 glioblastoma
[53] = tested on: UACC-257 melanoma
[54] = tested on: UACC-62 melanoma
[55] = tested on: UO-31 renal

For `O=C1CCC(N2C(=O)c3ccccc3C2=O)C(=O)N1` (stereo not given), the GI50 [1] was > 100 µM, the TGI [1] was > 100 µM and the GI50 [2] was > 100 µM. The TGI [2] was > 100 µM, the GI50 [3] was > 100 µM and the TGI [3] was > 100 µM. The GI50 [4] was > 100 µM, the TGI [4] was > 100 µM and the GI50 [5] was > 100 µM. For the same compound, the TGI [5] was > 100 µM, the GI50 [6] was > 100 µM and the TGI [6] was > 100 µM. The GI50 [7] was > 100 µM, the TGI [7] was > 100 µM and the GI50 [8] was > 100 µM. The TGI [8] was > 100 µM, the GI50 [9] was > 100 µM and the TGI [9] was > 100 µM. The GI50 [10] was > 100 µM, the TGI [10] was > 100 µM and the GI50 [11] was > 100 µM. For the same compound, the TGI [11] was > 100 µM, the GI50 [12] was > 100 µM and the TGI [12] was > 100 µM. The GI50 [13] was > 100 µM, the TGI [13] was > 100 µM and the GI50 [14] was > 100 µM. For the same compound, the TGI [14] was > 100 µM, the GI50 [15] was > 100 µM and the TGI [15] was > 100 µM. The GI50 [16] was > 100 µM, the TGI [16] was > 100 µM and the GI50 [17] was > 100 µM. The TGI [17] was > 100 µM, the GI50 [18] was > 100 µM and the TGI [18] was > 100 µM. The GI50 [19] was > 100 µM, the TGI [19] was > 100 µM and the GI50 [20] was > 100 µM. The TGI [20] was > 100 µM, the GI50 [21] was > 100 µM and the TGI [21] was > 100 µM. The GI50 [22] was > 100 µM, the TGI [22] was > 100 µM and the GI50 [23] was > 100 µM. The TGI [23] was > 100 µM, the GI50 [24] was > 100 µM and the TGI [24] was > 100 µM. For the same compound, the GI50 [25] was > 100 µM, the TGI [25] was > 100 µM and the GI50 [26] was > 100 µM. For the same compound, the TGI [26] was > 100 µM, the GI50 [27] was > 100 µM and the TGI [27] was > 100 µM. For the same compound, the GI50 [28] was > 100 µM, the TGI [28] was > 100 µM and the GI50 [29] was > 100 µM. For the same compound, the TGI [29] was > 100 µM, the GI50 [30] was > 100 µM and the TGI [30] was > 100 µM. For the same compound, the GI50 [31] was > 100 µM, the TGI [31] was > 100 µM and the GI50 [32] was > 100 µM. For the same compound, the TGI [32] was > 100 µM, the GI50 [33] was > 100 µM and the TGI [33] was > 100 µM. For the same compound, the GI50 [34] was > 100 µM, the TGI [34] was > 100 µM and the GI50 [35] was > 100 µM. For the same compound, the TGI [35] was > 100 µM, the GI50 [36] was > 100 µM and the TGI [36] was > 100 µM. The GI50 [37] was > 100 µM, the TGI [37] was > 100 µM and the GI50 [38] was > 100 µM. The TGI [38] was > 100 µM, the GI50 [39] was > 100 µM and the TGI [39] was > 100 µM. For the same compound, the GI50 [40] was > 100 µM, the TGI [40] was > 100 µM and the GI50 [41] was > 100 µM. The TGI [41] was > 100 µM, the GI50 [42] was > 100 µM and the TGI [42] was > 100 µM. The GI50 [43] was > 100 µM, the TGI [43] was > 100 µM and the GI50 [44] was > 100 µM. The TGI [44] was > 100 µM, the GI50 [45] was > 100 µM and the TGI [45] was > 100 µM. The GI50 [46] was > 100 µM, the TGI [46] was > 100 µM and the GI50 [47] was > 100 µM. For the same compound, the TGI [47] was > 100 µM, the GI50 [48] was > 100 µM and the TGI [48] was > 100 µM. For the same compound, the GI50 [49] was > 100 µM, the TGI [49] was > 100 µM and the GI50 [50] was > 100 µM. The TGI [50] was > 100 µM, the GI50 [51] was > 100 µM and the TGI [51] was > 100 µM. The GI50 [52] was > 100 µM, the TGI [52] was > 100 µM and the GI50 [53] was > 100 µM. The TGI [53] was > 100 µM, the GI50 [54] was > 100 µM and the TGI [54] was > 100 µM. For the same compound, the GI50 [55] was > 100 µM and the TGI [55] was > 100 µM.
